These results are taken from ChEMBL document CHEMBL1201862, “PubChem BioAssay data set” (2004).

Test systems include HCT-116; BT-549; SN12C; HOP-62; NCI-H460; SR; U-251; EKVX; SK-MEL-28; NCI-H226; Hs-578T; UO-31; SF-295; UACC-62; LOX IMVI; SF-268; PC-3; A498; MDA-MB-435; KM12.
Common to all, as to test: NCI-60 cell line screen, 48 h

The structures appear in SMILES notation.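 1) Cells in 96-well plates. 2) Compound, 48 h, 5 concentrations. 3) Linear interpolation between surrounding doses. 4) Unreached endpoint = highest concentration. GI50 marks 50% less growth.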 The source made the active and inactive calls. Rule as the data show it: active = GI50 up to about 1.1 µM and inactive = higher. Bounds are passed on as bounds.

As for `COc1ccc(-c2cc(O)c3nc4ccccc4n3c2)cc1`, the GI50 with HCT-116, with BT-549, in the test on SN12C, in the test on HOP-62, in the test on NCI-H460 and in the test with SR was > 100 µM (inactive) throughout. In addition, the GI50 is > 100 µM (inactive) in the test on U-251; > 100 µM (inactive) in the test on EKVX; > 100 µM (inactive) with SK-MEL-28; > 100 µM (inactive) with NCI-H226; 85.7 µM (inactive) with Hs-578T; > 100 µM (inactive) in the test with UO-31. The GI50 in the test with SF-295, in the test on UACC-62, in the test on LOX IMVI, in the test on SF-268, with PC-3 and in the test on A498 was > 100 µM (inactive) in each case. Moreover, the GI50 in the test with MDA-MB-435 and with KM12 was > 100 µM (inactive) each time.

Consider `CC(O[Si](C)(C)C(C)(C)C)[C@H](NC(=O)OCC(Cl)(Cl)Cl)C(=O)O` (some centres not stated), for which the GI50 in the test with HCT-116, in the test on BT-549, in the test on SN12C, with HOP-62, in the test on NCI-H460 and in the test on SR was > 100 µM (inactive) in each case. For the same molecule, the GI50 in the test with U-251, in the test with EKVX, with SK-MEL-28, in the test with NCI-H226, in the test on Hs-578T and in the test with UO-31 was > 100 µM (inactive) each time. In addition, the GI50 in the test with SF-295 was 51.2 µM (inactive); with UACC-62 it was 53.5 µM (inactive); with LOX IMVI, > 10 µM (inactive); in the test with SF-268, > 100 µM (inactive); in the test with PC-3, > 100 µM (inactive); in the test with A498, > 100 µM (inactive). Also, the GI50 in the test with MDA-MB-435 is > 100 µM (inactive); with KM12, 56 µM (inactive).

For the molecule `CC[C@H](C)[C@H](NC(=O)[C@H](Cc1ccc(O)cc1)NCC(F)(F)F)C(=O)OC(C)(C)C`, the GI50 was 7.18 µM (inactive) with HCT-116; 10.8 µM (inactive) with BT-549; 8.81 µM (inactive) with SN12C; 9.25 µM (inactive) in the test with HOP-62; 6.22 µM (inactive) in the test on NCI-H460; 5.97 µM (inactive) in the test on SR. The GI50 in the test on U-251 was 6.85 µM (inactive); in the test on EKVX it was 6.87 µM (inactive); with SK-MEL-28 it was 9.38 µM (inactive); in the test with NCI-H226 it was 9.06 µM (inactive); in the test on Hs-578T, 10.3 µM (inactive); in the test with UO-31, 7.64 µM (inactive). Further, the GI50 with SF-295 is 6.9 µM (inactive); with UACC-62 it was 5.69 µM (inactive); in the test with LOX IMVI, 8.67 µM (inactive); in the test on SF-268 it was 9.71 µM (inactive); in the test with PC-3, 6.43 µM (inactive); with A498 it was 7.31 µM (inactive). Further, the GI50 in the test with MDA-MB-435 was 7 µM (inactive); with KM12 it was 7.78 µM (inactive).

`CC(C)=CCNc1ncnc2c1ncn2CCC(=O)OC(C)(C)C`: the GI50 in the test with HCT-116 is > 100 µM (inactive); with BT-549, 37.5 µM (inactive); in the test on SN12C it was > 100 µM (inactive); with HOP-62, > 100 µM (inactive); in the test on NCI-H460, > 100 µM (inactive); with SR it was 52.2 µM (inactive). The GI50 was 63.8 µM (inactive) in the test on U-251; > 100 µM (inactive) in the test with SK-MEL-28; > 100 µM (inactive) with NCI-H226; 12.4 µM (inactive) in the test with Hs-578T; 22.7 µM (inactive) in the test with UO-31; > 100 µM (inactive) in the test with SF-295. The GI50 is 38.3 µM (inactive) in the test on UACC-62; > 100 µM (inactive) in the test on LOX IMVI; > 100 µM (inactive) with SF-268; 34.8 µM (inactive) in the test on PC-3; > 100 µM (inactive) in the test with A498; > 100 µM (inactive) in the test with MDA-MB-435. Besides, the GI50 with KM12 is > 100 µM (inactive).

`Cc1ccc2nc(-c3ccc(N)c(I)c3)sc2c1`: the GI50 in the test with HCT-116 was 54.6 µM (inactive); in the test on BT-549 it was 97.7 µM (inactive); with HOP-62 it was 28.8 µM (inactive); in the test on NCI-H460, 18.2 µM (inactive); with SR, 4.2 µM (inactive); with U-251, 26.1 µM (inactive). In addition, the GI50 with EKVX is 29 µM (inactive); in the test on SK-MEL-28, > 100 µM (inactive); with NCI-H226 it was 16 µM (inactive); in the test on Hs-578T it was 31 µM (inactive); in the test with UO-31, 7.06 µM (inactive); in the test with SF-295, 19.1 µM (inactive). The GI50 with UACC-62 was 32.5 µM (inactive); in the test with SF-268 it was 23.2 µM (inactive); in the test on PC-3, 8.49 µM (inactive); with A498 it was 20.4 µM (inactive); in the test on MDA-MB-435 it was 19.2 µM (inactive); in the test on KM12 it was 5.87 µM (inactive).

For `O=C(O)c1cc2c(cc1CC(Cc1ccccc1)C(=O)O)CCC2` (configuration not stated), the GI50 in the test with HCT-116, in the test on BT-549, in the test with SN12C, in the test on HOP-62, with NCI-H460 and with SR was > 100 µM (inactive) in each case. Also, the GI50 in the test with U-251, in the test on EKVX, in the test on SK-MEL-28, in the test on NCI-H226, in the test on Hs-578T and with UO-31 was > 100 µM (inactive) in each case. The GI50 in the test on SF-295, with LOX IMVI, with SF-268, in the test with PC-3, with A498 and in the test on MDA-MB-435 was > 100 µM (inactive) throughout. For the same molecule, in the test with KM12, the GI50 is > 100 µM (inactive).

Take `O=S(=O)(O)CCCC1S(=O)(=O)OCCOS1(=O)=O`: the GI50 in the test with HCT-116, in the test with BT-549, in the test on HOP-62, in the test with NCI-H460, in the test on SR and in the test with U-251 was > 100 µM (inactive) throughout. Also, the GI50 with EKVX, in the test on SK-MEL-28, in the test on NCI-H226, in the test with Hs-578T, in the test with UO-31 and in the test on SF-295 was > 100 µM (inactive) in each case. For the same molecule, the GI50 with UACC-62, in the test with LOX IMVI, with SF-268, in the test with PC-3, with A498 and in the test with MDA-MB-435 was > 100 µM (inactive) in each case. Also, the GI50 with KM12 is > 100 µM (inactive).

Turning to `O=C1CCC2(O)C3Cc4ccc(Oc5nnnn5-c5ccccc5)c5c4C2(CCN3CC2CC2)C1O5` (configuration not stated), the GI50 is 43.6 µM (inactive) in the test with HCT-116; 96.2 µM (inactive) in the test on BT-549; > 100 µM (inactive) in the test with SN12C; > 100 µM (inactive) in the test with HOP-62; 56.5 µM (inactive) in the test with NCI-H460; 15.6 µM (inactive) in the test on SR. Moreover, the GI50 with U-251 was 33.4 µM (inactive); in the test on EKVX, > 100 µM (inactive); in the test on SK-MEL-28, 14.9 µM (inactive); with Hs-578T, 28.9 µM (inactive); with UO-31 it was 24.2 µM (inactive); in the test on SF-295, 70 µM (inactive). Besides, the GI50 was 28.7 µM (inactive) in the test with UACC-62; 27 µM (inactive) with LOX IMVI; 34.7 µM (inactive) with SF-268; 67 µM (inactive) in the test with PC-3; 29.8 µM (inactive) in the test on A498; 19.9 µM (inactive) in the test with MDA-MB-435. Moreover, the GI50 in the test on KM12 is > 100 µM (inactive).

Consider `CC(=O)O[C@H]1C(=O)[C@@]2(C)[C@H]([C@H](OC(=O)c3ccccc3)[C@]3(O)C[C@H](OC(=O)[C@H](O)[C@@H](NC(=O)c4ccccc4)c4ccc5ccccc5c4)C(C)=C1C3(C)C)[C@]1(OC(C)=O)CO[C@@H]1C[C@@H]2O`, for which the GI50 was 0.0266 µM (active) with HCT-116; 0.0807 µM (active) with BT-549; 0.0681 µM (active) in the test with SN12C; 0.0506 µM (active) in the test on HOP-62; 0.0706 µM (active) with NCI-H460; 0.0239 µM (active) in the test on SR. Moreover, the GI50 with U-251 is 0.0692 µM (active); with EKVX, 5.35 µM (inactive); in the test with SK-MEL-28, 0.132 µM (active); in the test with Hs-578T, 0.0191 µM (active); with UO-31 it was 2.39 µM (inactive); with SF-295, 0.304 µM (active). The GI50 with UACC-62 is 0.0463 µM (active); with LOX IMVI it was 0.0887 µM (active); with SF-268 it was 0.0239 µM (active); in the test on PC-3, 0.0553 µM (active); in the test on A498, 0.467 µM (active); in the test with MDA-MB-435, 0.00993 µM (active). Besides, the GI50 with KM12 is 0.0512 µM (active).

Consider `COc1cc2oc3c(c(=O)c2c(O)c1/C=C/C(C)C)CCC(C)(C)Oc1cc(O)ccc1-3`, for which the GI50 was 18.2 µM (inactive) with HCT-116; 17.1 µM (inactive) in the test on BT-549; 13.6 µM (inactive) in the test with SN12C; 15.4 µM (inactive) in the test with HOP-62; 8.41 µM (inactive) in the test on NCI-H460; 4.78 µM (inactive) in the test with SR. In addition, the GI50 in the test on U-251 was 20.5 µM (inactive); in the test on EKVX it was 18.1 µM (inactive); in the test with SK-MEL-28 it was 14.8 µM (inactive); in the test with Hs-578T, 10.4 µM (inactive); in the test with UO-31, 13.1 µM (inactive); in the test on SF-295 it was 13.3 µM (inactive). The GI50 was 15.6 µM (inactive) in the test on UACC-62; 9.14 µM (inactive) in the test with LOX IMVI; 15.6 µM (inactive) in the test on SF-268; 15.2 µM (inactive) in the test with PC-3; 19.1 µM (inactive) with A498; 16.1 µM (inactive) in the test with MDA-MB-435. The GI50 with KM12 is 7.41 µM (inactive).
